In US20110124692A1, “CRYSTALLINE FORMS OF THIAZOLIDINEDIONE COMPOUND AND ITS MANUFACTURING METHOD” (DAIICHI SANKYO COMPANY, LIMITED, priority 2008, published 2011):
Structures can show the parent of a compound that is named as a salt. Where two headings read alike, the source gives them in different places.

Key:
[1] = in vivo; cited from earlier work
[2] = target: T1, peroxisome proliferator-activated receptor (PPAR) γ (Homo sapiens, UniProt P37231); settings: as disclosed in Patent Documents 1-5; cited from earlier work
T1 sequence (P37231 1-505): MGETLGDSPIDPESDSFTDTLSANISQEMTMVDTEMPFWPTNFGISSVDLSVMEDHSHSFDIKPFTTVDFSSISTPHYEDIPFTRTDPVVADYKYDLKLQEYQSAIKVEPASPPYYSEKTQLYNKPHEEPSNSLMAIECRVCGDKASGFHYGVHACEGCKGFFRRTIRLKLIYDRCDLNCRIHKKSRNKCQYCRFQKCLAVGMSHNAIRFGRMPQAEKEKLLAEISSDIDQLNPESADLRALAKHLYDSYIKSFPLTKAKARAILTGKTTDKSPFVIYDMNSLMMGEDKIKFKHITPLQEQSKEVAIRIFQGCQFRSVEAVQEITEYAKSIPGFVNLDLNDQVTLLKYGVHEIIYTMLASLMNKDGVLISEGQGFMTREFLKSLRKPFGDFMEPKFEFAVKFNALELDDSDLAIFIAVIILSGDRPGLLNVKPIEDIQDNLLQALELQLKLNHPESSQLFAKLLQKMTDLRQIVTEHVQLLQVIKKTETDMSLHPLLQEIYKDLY

[3] = Solubility in dilute hydrochloric acid (Test Example 3); assay type: physicochemical; settings: for The concentration (mg/g) of 5-(4-{[6-(4-amino-3,5-dimethylphenoxy)-1-methyl-1-H-benzimidazol-2-yl]methoxy}benzyl)-1,3-thiazolidine-2,4-dione in dilute hydrochloric acid: dilute hydrochloric acid 9.6 mg/g (pH about 0.7), 25° C., 500 mg in 5 mL, sampled after 6 minutes; for Concentration in dilute hydrochloric acid compared with the other crystalline forms: comparison of Table 7
Method: The concentration was measured under the test conditions below.
The concentration is calculated from the following formula.

human kidney cancer = settings: cited from earlier work
human leukemia cells = settings: cited from earlier work
[4] = system: human colon cancer cell lines; settings: against human colon cancer cell lines; cited from earlier work
[5] = system: human stomach cancer cells, human breast cancer cells, small cell lung cancer, pancreas cancer cells, prostate cancer cells, kidney cancer cells …; settings: medulloblastoma, sarcoma cells, multiple myeloma; cited from earlier work
[6] = system: human non-small-cell lung cancer; settings: cited from earlier work
cancer cells [7] = settings: in combination with a VEGFR inhibitor or a Raf kinase inhibitor; cited from earlier work
cancer cells [8] = settings: in combination with an epidermal growth factor receptor (EGFR) inhibitor; cited from earlier work

Cc1cc(Oc2ccc3nc(COc4ccc(CC5SC(=O)NC5=O)cc4)n(C)c3c2)cc(C)c1N (stereo not shown) [Compound (I), 5-(4-{[6-(4-amino-3,5-dimethylphenoxy)-1-methyl-1-H-benzimidazol-2-yl]methoxy}benzyl)-1,3-thiazolidine-2,4-dione]
Activity to ameliorate insulin resistance and to reduce blood sugar [1]: significant activity to ameliorate insulin resistance and to reduce blood sugar
Ability to activate PPAR γ [2]: significant ability to activate

Cc1cc(Oc2ccc3nc(COc4ccc(CC5SC(=O)NC5=O)cc4)n(C)c3c2)cc(C)c1N (stereo not shown) [5-(4-{[6-(4-amino-3,5-dimethylphenoxy)-1-methyl-1-H-benzimidazol-2-yl]methoxy}benzyl)-1,3-thiazolidine-2,4-dione monohydrate]
The concentration (mg/g) of 5-(4-{[6-(4-amino-3,5-dimethylphenoxy)-1-methyl-1-H-benzimidazol-2-yl]methoxy}benzyl)-1,3-thiazolidine-2,4-dione in dilute hydrochloric acid ([3]; monohydrate): 0.579 mg/g
Concentration in dilute hydrochloric acid compared with the other crystalline forms ([3]; listed as free-form crystalline form, monohydrate): higher concentration than all the dihydrochloride monohydrate crystalline forms

Cc1cc(Oc2ccc3nc(COc4ccc(CC5SC(=O)NC5=O)cc4)n(C)c3c2)cc(C)c1N (stereo not shown) [Crystalline form A manufactured according to Example 4] [5-(4-{[6-(4-amino-3,5-dimethylphenoxy)-1-methyl-1-H-benzimidazol-2-yl]methoxy}benzyl)-1,3-thiazolidine-2,4-dione dihydrochloride monohydrate]
The concentration (mg/g) of 5-(4-{[6-(4-amino-3,5-dimethylphenoxy)-1-methyl-1-H-benzimidazol-2-yl]methoxy}benzyl)-1,3-thiazolidine-2,4-dione in dilute hydrochloric acid ([3]; dihydrochloride monohydrate): 0.325 mg/g
Concentration in dilute hydrochloric acid compared with the other crystalline forms ([3]; dihydrochloride monohydrate): highest concentration among the dihydrochloride monohydrate crystalline forms

Cc1cc(Oc2ccc3nc(COc4ccc(CC5SC(=O)NC5=O)cc4)n(C)c3c2)cc(C)c1N (stereo not shown) [dihydrochloride of Compound (I), 5-(4-{[6-(4-amino-3,5-dimethylphenoxy)-1-methyl-1-H-benzimidazol-2-yl]methoxy}benzyl)-1,3-thiazolidine-2,4-dione dihydrochloride]
Antitumor activity (human kidney cancer; alone): has antitumor activity
Antitumor activity in combination (human kidney cancer; in combination with a VEGFR inhibitor or a Raf kinase inhibitor): enhanced antitumor activity
Growth inhibition of human leukemia cells (human leukemia cells): significantly inhibits the growth-inhibiting activity
Antitumor activity in vivo [4]: significant antitumor activity in vivo
Activity to inhibit the growth of cancer cells [5]: significant activity to inhibit the growth
Antitumor activity ([6]; alone): has antitumor activity
Antitumor activity in combination ([6]; in combination with an EGFR inhibitor): enhanced antitumor activity
Activity to inhibit the growth of cancer cells in combination (cancer cells [7]): synergistic activity to inhibit the growth of cancer cells
Activity to inhibit the growth of cancer cells in combination (cancer cells [8]): synergistic activity to inhibit the growth of cancer cells

Cc1cc(Oc2ccc3nc(COc4ccc(CC5SC(=O)NC5=O)cc4)n(C)c3c2)cc(C)c1N (stereo not shown) [Crystalline form manufactured according to Example (2-1)] [5-(4-{[6-(4-amino-3,5-dimethylphenoxy)-1-methyl-1-H-benzimidazol-2-yl]methoxy}benzyl)-1,3-thiazolidine-2,4-dione dihydrochloride monohydrate]
The concentration (mg/g) of 5-(4-{[6-(4-amino-3,5-dimethylphenoxy)-1-methyl-1-H-benzimidazol-2-yl]methoxy}benzyl)-1,3-thiazolidine-2,4-dione in dilute hydrochloric acid ([3]; dihydrochloride monohydrate): 0.276 mg/g
